According to patent US20070191393A1, “Macrocyclic anilinopyrimidines with substituted sulphoximine as selective inhibitors of cell cycle kinases” (priority 2006, published 2007):

Assays:
Format in all cases: biochemical
[1] = biological target: T1, Aurora-C (Homo sapiens, UniProt Q9UQB9); assay: Aurora-C kinase assay; conditions: 3 μM ATP, 22° C., 90 min
T1 construct: made in house; host or cells: HEK293 (transiently transfected)
T1 sequence (Q9UQB9 1-309): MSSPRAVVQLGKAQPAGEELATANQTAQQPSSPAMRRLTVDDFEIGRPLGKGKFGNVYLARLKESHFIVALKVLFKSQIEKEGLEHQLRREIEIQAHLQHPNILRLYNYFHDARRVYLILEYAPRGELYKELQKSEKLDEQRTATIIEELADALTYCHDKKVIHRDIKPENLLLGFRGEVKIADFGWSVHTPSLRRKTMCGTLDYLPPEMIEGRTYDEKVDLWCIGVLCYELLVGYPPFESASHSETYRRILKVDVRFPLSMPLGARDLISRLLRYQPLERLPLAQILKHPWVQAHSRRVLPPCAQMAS
Description: Recombinant Aurora-C protein was expressed in transiently transfected HEK293 cells and then purified. The kinase substrate used was the biotinylated peptide having the amino acid sequence biotin-FMRLRRLSTKYRT, which was purchased from Jerini A G in Berlin.
Aurora-C [5 nM in the test mixture, test volume 5 μl] was incubated in the presence of various concentrations of test substances (0 μM and 10 measurement points within the range 0.001-20 μM in duplicate) in assay buffer [25 mM HEPES pH 7.4, 0.5 mM MnCl2, 0.1 mM Na ortho-vanadate, 2.0 mM dithiothreitol, 0.05% bovine serum albumin (BSA), 0.01% Triton X-100, 3 μM adenosine trisphosphate (ATP), 0.67 nCi/μl gama-P33-ATP, 2.0 μM substrate peptide biotin-FMRLRRLSTKYRT, 1.0% dimethyl sulphoxide] at 22° C. for 90 min. The reaction was stopped by adding 12.5 μl of an EDTA/detection solution [16 mM EDTA, 40 mM ATP, 0.08% Triton X-100, 4 mg/ml PVT streptavidin SPA beads (from Amersham)]. After incubation for 10 minutes, the SPA beads were pelleted by centrifugation at 1000×G for 10 minutes. Measurement took place in a PerkinElmer Topcount scintillation counter. The measured data were normalized to 0% inhibition (enzyme reaction without inhibitor) and 100% inhibition (enzyme reaction in the presence of 0.1 μM staurosporine (from Sigma)). The IC50 values were determined by means of a 4-parameter fit using the company's own software.

[2] = biological target: T2, Aurora-A (Homo sapiens, UniProt O14965); assay: Aurora-A kinase assay; conditions: 8 μM ATP, 22° C., 90 min
T2 construct: purchased Upstate; host or cells: Sf21 insect cells
T2 sequence (O14965 1-403): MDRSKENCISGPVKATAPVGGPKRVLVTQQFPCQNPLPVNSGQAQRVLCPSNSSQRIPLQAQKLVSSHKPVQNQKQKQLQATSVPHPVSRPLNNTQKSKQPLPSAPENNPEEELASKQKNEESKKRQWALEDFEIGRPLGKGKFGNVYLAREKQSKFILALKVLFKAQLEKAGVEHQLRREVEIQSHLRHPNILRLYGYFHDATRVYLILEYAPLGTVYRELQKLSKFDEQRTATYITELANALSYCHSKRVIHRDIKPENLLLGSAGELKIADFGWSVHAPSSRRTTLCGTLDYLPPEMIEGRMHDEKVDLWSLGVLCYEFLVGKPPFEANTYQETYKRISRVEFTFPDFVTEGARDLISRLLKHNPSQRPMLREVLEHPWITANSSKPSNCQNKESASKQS
Description: Recombinant Aurora-A protein, expressed in Sf21 insect cells, was purchased from Upstate. The kinase substrate used was the biotinylated peptide having the amino acid sequence biotin-LNYNRRLSLGPMF, which was purchased from Jerini A G in Berlin.
Aurora-A [15 nM in the test mixture, test volume 5 μl] was incubated in the presence of various concentrations of test substances (0 μM and 10 measurement points within the range 0.001-20 μM in duplicate) in assay buffer [25 mM HEPES pH 7.4, 3 mM MnCl2, 5 mM MnCl2, 0.1 mM Na ortho-vanadate, 2.0 mM dithiothreitol, 0.05% bovine serum albumin (BSA), 0.01% Triton X-100, 8 μM ATP, 4 nCi/μl gama-P33-ATP, 5.0 μM substrate peptide biotin-LNYNRRLSLGPMF, 1.0% dimethyl sulphoxide] at 22° C. for 90 min. The reaction was stopped by adding 12.5 μl of an EDTA/detection solution [16 mM EDTA, 40 mM ATP, 0.08% Triton X-100, 4 mg/ml PVT streptavidin SPA beads (from Amersham)]. After incubation for 10 minutes, the SPA beads were pelleted by centrifugation at 1000×G for 10 minutes. Measurement took place in a PerkinElmer Topcount scintillation counter.
The measured data were normalized to 0% inhibition (enzyme reaction without inhibitor) and 100% inhibition (enzyme reaction in the presence of 0.1 μM staurosporine (from Sigma)). The IC50 values were determined by means of a 4-parameter fit using the company's own software.

[3] = biological target: T3, c-kit (Homo sapiens, UniProt P10721); assay: c-Kit kinase assay; conditions: 10 μM ATP, 22° C., 30 min
T3 construct: made in house; host or cells: E. coli
Description: Recombinant c-kit protein was expressed in E. coli and then purified. The kinase substrate used was the biotinylated peptide having the amino acid sequence biotin-poly GluTyr, which was purchased from CisBio.
C-kit [test volume 5 μl] was incubated in the presence of various concentrations of test substances (0 μM, and 10 measurement points within the range 0.001-20 μM in duplicate) in assay buffer [50 mM HEPES pH 7.0, 1.0 mM MgCl2, […], 0.1 mM Na ortho-vanadate, 1.0 mM dithiothreitol, 0.001% NP40, 10 μM ATP, 0.03 μM substrate peptide biotin-poly GluTyr, 1.0% dimethyl sulphoxide] at 22° C. for 30 min. The reaction was stopped by adding 5 μl of an EDTA/detection solution [50 mM HEPES pH 7.5, 80 mM EDTA, 0.2% BSA, 0.1 μM streptavidin-XLent (from CisBio), 1 nM PT66-Eu (from PerkinElmer)]. The fluorescence emission at 620 nm and 665 nm after excitation with light of the wavelength 350 nm was measured in a Rubystar HTRF instrument from BMG Labsystems. The measured data (ratio of emission 665 divided by emission 620 multiplied by 10 000) were normalized to 0% inhibition (enzyme reaction without inhibitor) and 100% inhibition (all assay components apart from enzyme). The IC50 values were determined by means of a 4-parameter fit using the company's own software.

T3 sequence (P10721 26-976): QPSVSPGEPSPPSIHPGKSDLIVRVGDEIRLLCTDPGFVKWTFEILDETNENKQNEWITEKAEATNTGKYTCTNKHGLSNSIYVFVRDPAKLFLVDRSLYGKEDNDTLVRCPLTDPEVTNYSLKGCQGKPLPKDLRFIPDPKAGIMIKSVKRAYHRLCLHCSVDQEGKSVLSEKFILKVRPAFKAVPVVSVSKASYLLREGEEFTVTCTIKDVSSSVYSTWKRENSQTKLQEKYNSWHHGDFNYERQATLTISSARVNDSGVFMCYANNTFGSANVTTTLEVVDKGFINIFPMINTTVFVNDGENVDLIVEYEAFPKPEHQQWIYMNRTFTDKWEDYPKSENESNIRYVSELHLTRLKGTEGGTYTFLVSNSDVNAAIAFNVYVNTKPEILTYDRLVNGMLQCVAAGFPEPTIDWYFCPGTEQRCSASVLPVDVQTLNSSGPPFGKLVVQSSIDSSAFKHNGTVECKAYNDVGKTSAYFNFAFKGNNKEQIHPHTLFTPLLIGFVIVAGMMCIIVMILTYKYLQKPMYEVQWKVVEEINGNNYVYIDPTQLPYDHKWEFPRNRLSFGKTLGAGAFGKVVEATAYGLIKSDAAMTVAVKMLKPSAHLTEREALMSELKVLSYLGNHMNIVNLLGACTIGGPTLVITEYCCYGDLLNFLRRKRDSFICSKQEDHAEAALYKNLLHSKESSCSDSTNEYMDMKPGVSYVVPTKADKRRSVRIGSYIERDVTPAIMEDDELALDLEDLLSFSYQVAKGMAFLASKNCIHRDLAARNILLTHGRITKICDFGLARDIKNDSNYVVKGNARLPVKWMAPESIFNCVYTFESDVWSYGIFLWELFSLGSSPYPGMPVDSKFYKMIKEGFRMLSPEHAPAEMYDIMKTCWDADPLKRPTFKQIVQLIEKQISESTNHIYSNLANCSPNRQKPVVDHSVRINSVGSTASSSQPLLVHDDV

Row | SMILES | IC50 [1] | IC50 [2] | IC50 [3]
1 | CCOC(=O)N=S(C)(=O)c1ccc2cc1NCCCCNc1nc(ncc1Br)N2 (racemic) [Example 1, (RS)—S-[1^5-Bromo-2,4,9-triaza-1(2,4)-pyrimidina-3(1,3)-benzenacyclononaphan-3^4-yl]-N-(ethoxycarbonyl)-S-methylsulphoximide] | 19 nM | 27 nM | 29 nM
2 | CCOC(=O)N=S(C)(=O)c1ccc2cc1NCCCCNc1nc(ncc1I)N2 (racemic) [Example 4, (RS)—N-(Ethoxycarbonyl)-S-[1^5-iodo-2,4,9-triaza-1(2,4)-pyrimidina-3(1,3)-benzenacyclononaphan-3^4-yl]-S-methylsulphoximide] | 24 nM | 31 nM | 23 nM
3 | C[Si](C)(C)CCS(=O)(=O)N=S(C)(=O)c1ccc2cc1NCCCCNc1nc(ncc1Br)N2 (racemic) [Example 5, (RS)—S-[1^5-Bromo-2,4,9-triaza-1(2,4)-pyrimidina-3(1,3)-benzenacyclononaphan-3^4-yl]-S-methyl-N-[2-(trimethylsilyl)ethylsulphonyl]sulphoximide] | 88 nM | 844 nM | 164 nM
4 | CCNC(=O)N=S(C)(=O)c1ccc2cc1NCCCCNc1nc(ncc1Br)N2 (racemic) [Example 6, (RS)—S-[1^5-Bromo-2,4,9-triaza-1(2,4)-pyrimidina-3(1,3)-benzenacyclononaphan-3^4-yl]-N-(ethylcarbamoyl)-S-methylsulphoximide] | 19 nM | 21 nM | 14 nM
5 | CCCS(=O)(=O)N=S(C)(=O)c1ccc2cc1NCCCCNc1nc(ncc1Br)N2 (racemic) [Example 7, (RS)—S-[1^5-Bromo-2,4,9-triaza-1(2,4)-pyrimidina-3(1,3)-benzenacyclononaphan-3^4-yl]-S-methyl-N-(propylsulphonyl)sulphoximide] | 34 nM | 44 nM | 17 nM
6 | CCCOC(=O)N=S(C)(=O)c1ccc2cc1OCCCCNc1nc(ncc1Br)N2 (racemic) [Example 8, (RS)—S-[1^5-Bromo-4-oxa-2,9-diaza-1(2,4)-pyrimidina-3(1,3)-benzenacyclononaphan-3^4-yl]-S-methyl-N-(propoxycarbonyl)sulphoximide] | 283 nM |  | 357 nM
7 | C[Si](C)(C)CCS(=O)(=O)N=S(C)(=O)c1ccc2cc1OCCCCNc1nc(ncc1Br)N2 (racemic) [Example 9, (RS)—S-[1^5-Bromo-4-oxa-2,9-diaza-1(2,4)-pyrimidina-3(1,3)-benzenacyclononaphan-3^4-yl]-S-methyl-N-[2-(trimethylsilyl)ethylsulphonyl]sulphoximide] | 95 nM | 652 nM | > 12500 nM
8 | CCOC(=O)N=S(C)(=O)c1ccc2cc1NCCCCNc1nc(ncc1Br)N2 (single isomer, unassigned) [Example 2] | 13 nM | 26 nM | 46 nM
9 | CCOC(=O)N=S(C)(=O)c1ccc2cc1NCCCCNc1nc(ncc1Br)N2 (single isomer, unassigned) [Example 3] | 69 nM | 77 nM | 64 nM
